From PubChem BioAssay AID248 (DTP/NCI, 2004)
Toxic doses and inconclusive results are not listed. Rule as the data show it: active = T/C of 150% or more; inactive = T/C below 125%. Square brackets hold non-standard residues; d marks the D form. Peptide text beside a SMILES is read from it. * marks the point of attachment. ξ: configuration not given here. Hexanoyl = CCCCCC(=O)*; ξP = O=C(O)C1CCCN1

Tested on: L1210 leukemia ip in BDF1 mice, survival T/C
Test: NCI In Vivo Anticancer Drug Screen. Data for tumor model L1210 Leukemia (intraperitoneal) in B6D2F1 (BDF1) mice
Details: endpoint: mean survival time, higher = longer survival
Outline: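 Survival endpoint. Drug-treated group vs vehicle group, expressed as T divided by C. Tumor passaged by transplantation.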

[1] = dose: 10.0 mg/kg/injection, schedule: Q01DX001 (ip), vehicle: saline
[2] = dose: 20.0 mg/kg/injection, schedule: Q01DX001 (ip), vehicle: saline
[3] = dose: 100.0 mg/kg/injection, schedule: Q01DX001 (ip), vehicle: carboxymethylcellulose (CMC)
[4] = dose: 200.0 mg/kg/injection, schedule: Q01DX001 (ip), vehicle: carboxymethylcellulose (CMC)
[5] = dose: 100.0 mg/kg/injection, schedule: Q01DX001 (ip), vehicle: saline
[6] = dose: 200.0 mg/kg/injection, schedule: Q01DX001 (ip), vehicle: saline
[7] = dose: 400.0 mg/kg/injection, schedule: Q01DX001 (ip), vehicle: saline
[8] = dose: 200.0 mg/kg/injection, schedule: Q01DX009 (ip), vehicle: other
[9] = dose: 100.0 mg/kg/injection, schedule: Q04DX003 (ip), vehicle: Klucel (hydroxypropylcellulose) (HPC)
[10] = dose: 200.0 mg/kg/injection, schedule: Q04DX003 (ip), vehicle: Klucel (hydroxypropylcellulose) (HPC)
[11] = dose: 100.0 mg/kg/injection, schedule: Q01DX009 (ip), vehicle: saline with Tween-80
[12] = dose: 200.0 mg/kg/injection, schedule: Q01DX009 (ip), vehicle: saline with Tween-80
[13] = dose: 400.0 mg/kg/injection, schedule: Q01DX009 (ip), vehicle: saline with Tween-80

Measured: T/C

CO[C@H]1C=CC2=CCN3CCC4=C(CC(=O)OC4)[C@]23C1
inactive: [1] 104 % of control | [2] 96 % of control

c1ccc2c(OCCN3CC3)nccc2c1
inactive: [3] 103 % of control | [4] 113 % of control

Cc1nn2cnnc2s1
inactive: dose: 50.0 mg/kg/injection, schedule: Q01DX001 (ip), vehicle: saline 98 % of control | [5] 101 % of control | [6] 98 % of control | [7] 101 % of control

CCCCCCCCCCCCCCCCCCNC(=O)Nc1ccccc1
inactive: dose: 100.0 mg/kg/injection, schedule: Q01DX009 (ip), vehicle: other 101 % of control | [8] 100 % of control | dose: 400.0 mg/kg/injection, schedule: Q01DX009 (ip), vehicle: other 97 % of control

CCCCCCCCCCCCCC1=NCCN1CCO
inactive: dose: 5.0 mg/kg/injection, schedule: Q01DX009 (ip), vehicle: saline 94 % of control | dose: 10.0 mg/kg/injection, schedule: Q01DX009 (ip), vehicle: saline 96 % of control | dose: 20.0 mg/kg/injection, schedule: Q01DX009 (ip), vehicle: saline 86 % of control

CC1C2C(=O)C3(C(C)C(=O)O)CCC2(C)C3CC12OCCO2 (centres undefined)
inactive: dose: 100.0 mg/kg/injection, schedule: Q01DX001 (ip), vehicle: Klucel (hydroxypropylcellulose) (HPC) 95 % of control | dose: 200.0 mg/kg/injection, schedule: Q01DX001 (ip), vehicle: Klucel (hydroxypropylcellulose) (HPC) 108 % of control | dose: 400.0 mg/kg/injection, schedule: Q01DX001 (ip), vehicle: Klucel (hydroxypropylcellulose) (HPC) 97 % of control

c1cc2c(cc1C1SCSCS1)OCO2
inactive: dose: 100.0 mg/kg/injection, schedule: Q01DX009 (ip), vehicle: Klucel (hydroxypropylcellulose) (HPC) 98 % of control | [9] 96 % of control | dose: 200.0 mg/kg/injection, schedule: Q01DX009 (ip), vehicle: Klucel (hydroxypropylcellulose) (HPC) 92 % of control | [10] 98 % of control | dose: 400.0 mg/kg/injection, schedule: Q01DX009 (ip), vehicle: Klucel (hydroxypropylcellulose) (HPC) 90 % of control | dose: 400.0 mg/kg/injection, schedule: Q04DX003 (ip), vehicle: Klucel (hydroxypropylcellulose) (HPC) 98 % of control

OC(c1ccccc1)c1ccccc1 (tested in a mixture with another compound)
inactive: dose: 2.5 mg/kg/injection, schedule: Q01DX009 (ip), vehicle: acetone 107 % of control | dose: 5.0 mg/kg/injection, schedule: Q01DX009 (ip), vehicle: acetone 105 % of control | [1] 93 % of control | dose: 10.0 mg/kg/injection, schedule: Q01DX009 (ip), vehicle: acetone 98 % of control | [2] 88 % of control

CC(c1ccccc1)n1cnc2c(=O)[nH]cnc21 (centres undefined)
inactive: dose: 50.0 mg/kg/injection, schedule: Q01DX001 (ip), vehicle: carboxymethylcellulose (CMC) 106 % of control | [3] 101 % of control | [4] 101 % of control | dose: 400.0 mg/kg/injection, schedule: Q01DX001 (ip), vehicle: carboxymethylcellulose (CMC) 95 % of control

Nc1cccc(CNC(=O)COc2ccc(Cl)cc2C(=O)O)c1
inactive: dose: 100.0 mg/kg/injection, schedule: Q01DX001 (ip), vehicle: saline with Tween-80 98 % of control | dose: 200.0 mg/kg/injection, schedule: Q01DX001 (ip), vehicle: saline with Tween-80 95 % of control | dose: 400.0 mg/kg/injection, schedule: Q01DX001 (ip), vehicle: saline with Tween-80 103 % of control

CCCCCC(=O)NCC(=O)N1CCCC1C(=O)O (centres undefined) (Hexanoyl-Gly-[ξP]-OH)
inactive: [5] 95 % of control | [6] 107 % of control | [7] 98 % of control

COC(=O)C(CCSC)NC(=O)C1CSC(C)(C)N1C=O (centres undefined)
inactive: dose: 100.0 mg/kg/injection, schedule: Q04DX003 (ip), vehicle: saline 97 % of control | dose: 200.0 mg/kg/injection, schedule: Q04DX003 (ip), vehicle: saline 97 % of control | dose: 400.0 mg/kg/injection, schedule: Q04DX003 (ip), vehicle: saline 101 % of control

CCOP(=O)(OCC)C(=O)C1C(C=C(C)C)C1(C)C (centres undefined)
inactive: dose: 100.0 mg/kg/injection, schedule: Q04DX002 (ip), vehicle: saline 123 % of control | dose: 200.0 mg/kg/injection, schedule: Q04DX002 (ip), vehicle: saline 104 % of control | dose: 400.0 mg/kg/injection, schedule: Q04DX002 (ip), vehicle: saline 115 % of control

CCCCCCCCCCCCCCCC(=O)N(c1ccc(NC(=O)Nc2ccc(N(C(=O)CCCCCCCCCCCCCCC)C(C)CCCN(CC)CC)cc2)cc1)C(C)CCCN(CC)CC (centres undefined)
inactive: [11] 90 % of control | [12] 92 % of control | [13] 97 % of control

CCn1c2ccccc2c2cc3ccnc(C)c3cc21
inactive: dose: 100.0 mg/kg/injection, schedule: Q04DX002 (ip), vehicle: Klucel (hydroxypropylcellulose) (HPC) 97 % of control | dose: 200.0 mg/kg/injection, schedule: Q04DX002 (ip), vehicle: Klucel (hydroxypropylcellulose) (HPC) 101 % of control | dose: 400.0 mg/kg/injection, schedule: Q04DX002 (ip), vehicle: Klucel (hydroxypropylcellulose) (HPC) 111 % of control

CCC(CO)NC(=O)/C=C/c1cc(OC)ccc1OC (centres undefined)
inactive: dose: 150.0 mg/kg/injection, schedule: Q04DX003 (ip), vehicle: saline with Tween-80 111 % of control | dose: 300.0 mg/kg/injection, schedule: Q04DX003 (ip), vehicle: saline with Tween-80 102 % of control | dose: 600.0 mg/kg/injection, schedule: Q04DX003 (ip), vehicle: saline with Tween-80 109 % of control

CC[N+](C)(C)C(C)(C)C
inactive: dose: 18.75 mg/kg/injection, schedule: Q01DX001 (ip), vehicle: saline 112 % of control | dose: 37.5 mg/kg/injection, schedule: Q01DX001 (ip), vehicle: saline 105 % of control | dose: 75.0 mg/kg/injection, schedule: Q01DX001 (ip), vehicle: saline 105 % of control

O=C(COc1cccc(Cl)c1)Nc1ccccc1
inactive: [11] 94 % of control | [12] 100 % of control | [13] 89 % of control

CCOC(=O)C(CCN1CCCCC1)c1cccc2ccccc12 (centres undefined)
inactive: [9] 100 % of control | [10] 88 % of control

CC(=O)Nc1ccc(OCCOC(=O)Nc2ccc(C)c([N+](=O)[O-])c2)cc1
inactive: dose: 50.0 mg/kg/injection, schedule: Q01DX009 (ip), vehicle: saline with Tween-80 87 % of control | [12] 87 % of control

NC(=O)C1C(=O)OC2CCCCC21 (centres undefined)
inactive: [5] 92 % of control | [6] 87 % of control | [7] 97 % of control

CCN(CC)c1ccccc1S(=O)(=O)O
inactive: [5] 104 % of control | [6] 95 % of control | [7] 98 % of control

CC12C=CC(CC1)C2O (centres undefined)
inactive: [11] 105 % of control | dose: 100.0 mg/kg/injection, schedule: Q04DX003 (ip), vehicle: saline with Tween-80 100 % of control | [12] 96 % of control | dose: 200.0 mg/kg/injection, schedule: Q04DX003 (ip), vehicle: saline with Tween-80 96 % of control | dose: 400.0 mg/kg/injection, schedule: Q04DX003 (ip), vehicle: saline with Tween-80 98 % of control

ClCCN(CCCl)c1ccc(/C=C\c2ccnc3ccccc23)cc1
inactive: dose: 100.0 mg/kg/injection, schedule: Q01DX009 (ip), vehicle: carboxymethylcellulose (CMC) 88 % of control | dose: 100.0 mg/kg/injection, schedule: Q04DX003 (ip), vehicle: other 96 % of control | [8] 90 % of control | dose: 200.0 mg/kg/injection, schedule: Q04DX003 (ip), vehicle: other 96 % of control | dose: 400.0 mg/kg/injection, schedule: Q04DX003 (ip), vehicle: other 98 % of control
